Experimental data: patent publication US20230295142A1, “NOVEL COMPOUNDS AS HISTONE DEACETYLASE 6 INHIBITOR, AND PHARMACEUTICAL COMPOSITION COMPRISING THE SAME” (CHONG KUN DANG PHARMACEUTICAL CORP., priority 2020, published 2023)

What was measured:
HDAC1 = HDAC1 (Homo sapiens (Human), UniProt Q13547); test: HDAC1 enzyme activity inhibition (HDAC1 Fluorimetric Drug Discovery Assay Kit); format: biochemical; conditions: samples at 100, 1000 and 10000 nM; 37° C. 60 minutes
Procedure: (§1) A HDAC enzyme inhibitory capacity of a test material was measured by using HDAC1 Fluorimetric Drug Discovery Assay Kit (Enzolifesciences: BML-AK511) and HDAC6 human recombinant (Calbiochem: 382180). For a HDAC1 assay, samples were treated at a concentration of 100, 1000 and 10000 nM. For a HDAC6 assay, samples were treated at a concentration of 0.1, 1, 10, 100 and 1000 nM. After the above sample treatment, a reaction was continued at 37° C. for 60 minutes, treated with a developer, and subjected to reaction at 37° C. for 30 minutes, after which fluorescence intensity (Ex 390, Em 460) was measured by using FlexStatin3 (Molecular device).

HDAC6 human recombinant = HDAC6 human recombinant (Homo sapiens (Human), UniProt Q9UBN7); test: HDAC6 enzyme activity inhibition (fluorimetric, in vitro); format: biochemical; conditions: samples at 0.1, 1, 10, 100 and 1000 nM; 37° C. 60 minutes
Sequence of HDAC6 human recombinant (Q9UBN7 whole entry): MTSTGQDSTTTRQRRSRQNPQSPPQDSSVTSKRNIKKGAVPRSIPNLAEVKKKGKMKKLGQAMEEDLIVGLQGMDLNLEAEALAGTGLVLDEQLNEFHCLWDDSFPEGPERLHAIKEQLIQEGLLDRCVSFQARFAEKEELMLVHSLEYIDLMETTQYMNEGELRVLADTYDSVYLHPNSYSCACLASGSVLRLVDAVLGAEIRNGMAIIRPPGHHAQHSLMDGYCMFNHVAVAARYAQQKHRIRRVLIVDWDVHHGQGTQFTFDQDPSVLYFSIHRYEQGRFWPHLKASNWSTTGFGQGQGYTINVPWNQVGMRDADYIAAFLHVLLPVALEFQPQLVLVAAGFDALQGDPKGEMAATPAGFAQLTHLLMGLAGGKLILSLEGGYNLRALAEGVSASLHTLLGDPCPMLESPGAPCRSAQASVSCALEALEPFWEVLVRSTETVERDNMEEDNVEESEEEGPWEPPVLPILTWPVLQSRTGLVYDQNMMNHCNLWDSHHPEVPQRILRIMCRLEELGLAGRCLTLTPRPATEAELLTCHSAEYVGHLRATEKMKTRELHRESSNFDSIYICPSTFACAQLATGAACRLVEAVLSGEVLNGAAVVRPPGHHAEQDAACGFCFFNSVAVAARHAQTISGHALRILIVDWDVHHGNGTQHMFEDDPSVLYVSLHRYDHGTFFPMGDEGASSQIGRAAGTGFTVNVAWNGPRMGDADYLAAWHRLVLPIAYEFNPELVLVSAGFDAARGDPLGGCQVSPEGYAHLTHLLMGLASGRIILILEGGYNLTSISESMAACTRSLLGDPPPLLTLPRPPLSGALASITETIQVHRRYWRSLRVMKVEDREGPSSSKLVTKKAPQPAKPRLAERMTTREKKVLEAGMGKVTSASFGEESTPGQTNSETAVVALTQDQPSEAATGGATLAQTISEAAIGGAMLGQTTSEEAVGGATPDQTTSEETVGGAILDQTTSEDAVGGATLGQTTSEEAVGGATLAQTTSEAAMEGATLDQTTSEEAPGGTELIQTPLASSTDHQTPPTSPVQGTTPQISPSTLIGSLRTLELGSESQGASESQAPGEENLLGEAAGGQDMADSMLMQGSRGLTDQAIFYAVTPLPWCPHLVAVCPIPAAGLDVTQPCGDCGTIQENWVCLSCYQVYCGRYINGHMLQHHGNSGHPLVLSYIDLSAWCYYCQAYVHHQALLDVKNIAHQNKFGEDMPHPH
Procedure: as §1

Sequence of HDAC1 (Q13547 whole entry): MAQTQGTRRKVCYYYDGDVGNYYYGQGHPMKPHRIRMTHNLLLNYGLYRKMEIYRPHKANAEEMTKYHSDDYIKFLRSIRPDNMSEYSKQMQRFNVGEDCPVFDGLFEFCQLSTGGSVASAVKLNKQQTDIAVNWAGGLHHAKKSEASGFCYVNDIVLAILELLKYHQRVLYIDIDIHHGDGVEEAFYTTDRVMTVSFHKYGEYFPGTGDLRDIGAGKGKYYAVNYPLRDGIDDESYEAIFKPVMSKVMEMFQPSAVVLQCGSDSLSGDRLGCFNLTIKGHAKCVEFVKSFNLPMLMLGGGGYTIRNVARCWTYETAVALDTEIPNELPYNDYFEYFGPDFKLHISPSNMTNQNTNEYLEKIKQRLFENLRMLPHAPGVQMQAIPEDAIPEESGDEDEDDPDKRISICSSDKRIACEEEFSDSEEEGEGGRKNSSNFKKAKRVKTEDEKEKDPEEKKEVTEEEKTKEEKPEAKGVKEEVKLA

| Structure (SMILES) | IC50 (HDAC1) | IC50 (HDAC6 human recombinant) |
| --- | --- | --- |
| CC1(C)C(=O)N(Cc2ccc(-c3nnc(C(F)F)o3)cn2)C(=O)N1c1ccc(-c2cccc(F)c2)cc1 [Compound 28, 3-((5-(5-(difluoromethyl)-1,3,4-oxadiazol-2-yl)pyridin-2-yl)methyl)-1-(3′-fluoro-[1,1′-biphenyl]-4-yl)-5,5-dimethylimidazolidin-2,4-dione] | > 10 µM | 0.168 µM |
| CC1(C)C(=O)N(Cc2ccc(-c3nnc(C(F)F)o3)cn2)C(=O)N1c1ccc(-c2ccccc2F)cc1 [Compound 29, 3-((5-(5-(difluoromethyl)-1,3,4-oxadiazol-2-yl)pyridin-2-yl)methyl)-1-(2′-fluoro-[1,1′-biphenyl]-4-yl)-5,5-dimethylimidazolidin-2,4-dione] | > 10 µM | 0.165 µM |
| CC(C)(C)OC(=O)n1ccc2c(N3C(=O)N(Cc4ccc(-c5nnc(C(F)F)o5)cn4)C(=O)C3(C)C)cccc21 [Compound 30, tert-butyl 4-(3-((5-(5-(difluoromethyl)-1,3,4-oxadiazol-2-yl)pyridin-2-yl)methyl)-5,5-dimethyl-2,4-dioxoimidazolidin-1-yl)-1H-indol-1-carboxylate] | > 10 µM | 0.578 µM |
| CC(C)(C)OC(=O)N1CCc2c1cccc2N1C(=O)N(Cc2ccc(-c3nnc(C(F)F)o3)cn2)C(=O)C1(C)C [Compound 31, tert-butyl 4-(3-((5-(5-(difluoromethyl)-1,3,4-oxadiazol-2-yl)pyridin-2-yl)methyl)-5,5-dimethyl-2,4-dioxoimidazolidin-1-yl)indolin-1-carboxylate] | > 10 µM | 0.316 µM |
| CC1(C)C(=O)N(Cc2ccc(-c3nnc(C(F)F)o3)cn2)C(=O)N1c1cccc2[nH]ccc12 [Compound 32, 3-((5-(5-(difluoromethyl)-1,3,4-oxadiazol-2-yl)pyridin-2-yl)methyl)-1-(1H-indol-4-yl)-5,5-dimethylimidazolidin-2,4-dione] | > 10 µM | 0.055 µM |
| CC1(C)C(=O)N(Cc2ccc(-c3nnc(C(F)F)o3)cn2)C(=O)N1c1cccc2c1CCN2 [Compound 33, 3-((5-(5-(difluoromethyl)-1,3,4-oxadiazol-2-yl)pyridin-2-yl)methyl)-1-(indolin-4-yl)-5,5-dimethylimidazolidin-2,4-dione] | > 10 µM | 0.058 µM |
| CC1(C)C(=O)N(Cc2ccc(-c3nnc(C(F)F)o3)cn2)C(=O)N1c1cccc([N+](=O)[O-])c1 [Compound 34, 3-((5-(5-(difluoromethyl)-1,3,4-oxadiazol-2-yl)pyridin-2-yl)methyl)-5,5-dimethyl-1-(3-nitrophenyl)imidazolidin-2,4-dione] | > 10 µM | 0.046 µM |
| CC1(C)C(=O)N(Cc2ccc(-c3nnc(C(F)F)o3)cn2)C(=O)N1c1cccc(N)c1 [Compound 35, 1-(3-aminophenyl)-3-((5-(5-(difluoromethyl)-1,3,4-oxadiazol-2-yl)pyridin-2-yl)methyl)-5,5-dimethylimidazolidin-2,4-dione] | > 10 µM | 0.052 µM |
| CC(=O)Nc1cccc(N2C(=O)N(Cc3ccc(-c4nnc(C(F)F)o4)cn3)C(=O)C2(C)C)c1 [Compound 36, N-(3-(3-((5-(5-(difluoromethyl)-1,3,4-oxadiazol-2-yl)pyridin-2-yl)methyl)-5,5-dimethyl-2,4-dioxoimidazolidin-1-yl)phenyl)acetamide] | > 10 µM | 0.035 µM |
| CC(=O)N1CCc2c1cccc2N1C(=O)N(Cc2ccc(-c3nnc(C(F)F)o3)cn2)C(=O)C1(C)C [Compound 37, 1-(1-acetylindolin-4-yl)-3-((5-(5-(difluoromethyl)-1,3,4-oxadiazol-2-yl)pyridin-2-yl)methyl)-5,5-dimethylimidazolidin-2,4-dione] | > 10 µM | 0.068 µM |
